The target of one assay is T1, ALK5 kinase (Homo sapiens, UniProt P36897).
T1 sequence (P36897 34-503): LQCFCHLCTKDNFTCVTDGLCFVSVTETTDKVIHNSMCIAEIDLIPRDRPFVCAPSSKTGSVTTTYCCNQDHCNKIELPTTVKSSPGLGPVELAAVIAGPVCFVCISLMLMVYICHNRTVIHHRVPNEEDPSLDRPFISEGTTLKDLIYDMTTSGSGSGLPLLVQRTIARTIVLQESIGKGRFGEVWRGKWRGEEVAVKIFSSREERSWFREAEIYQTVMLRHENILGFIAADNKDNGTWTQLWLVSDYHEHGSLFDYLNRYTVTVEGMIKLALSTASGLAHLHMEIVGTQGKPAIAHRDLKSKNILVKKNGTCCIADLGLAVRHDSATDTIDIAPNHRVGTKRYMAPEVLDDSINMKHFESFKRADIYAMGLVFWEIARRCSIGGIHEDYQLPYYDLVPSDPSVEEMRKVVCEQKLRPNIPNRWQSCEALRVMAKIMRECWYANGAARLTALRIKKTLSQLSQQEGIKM
In words: LanthaScreen Eu Kinase Binding Assay. The conditions noted are these: Kinase Tracer 178, Eu-anti-GST Antibody, read-out: IC50 Enzyme. The procedure, abridged:
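Compound (1% DMSO final) preincubated 30 min at RT with GST-tagged ALK5, then Eu-anti-GST antibody and Kinase Tracer 178 added for 60 min at RT. TR-FRET read at 340 nm excitation; 665/615 nm emission ratio falls as compound binding rises.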
A general note: Time-resolved FRET reads energy transfer from a long-lived donor to a nearby acceptor.

The subject of a further assay is TGF-β signaling. Description: Assay for evaluating cellular inhibition of TGF-β signaling, 4T1 (SBE-luc2P) luciferase reporter. Format: cell-based. The settings on record: Mus musculus, 4T1, 4T1 (SBE-luc2P) transient pool, 0.2% FBS, 2 h pre-treatment, TGF-β1 2 ng/mL 24 h; read-out: IC50 4T1 Cell. The essentials: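 4T1 cells transiently carrying SBE-luc2P (6×10^3/well, 0.2% FBS, ~60% confluence) or HEK293 SBE-reporter stable cells (2.5×10^4/well, 0.5% FBS, ~80% confluence) pre-treated with compound for 2 h. TGF-β1 (2 ng/mL) then added for 24 h at 37 °C; luciferase luminescence read from lysates.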
On the technique in general: In a reporter assay the amount or activity of a reporter protein is the signal.

The IC50 is the concentration at which inhibition is half-maximal. In the case of `CN(C)c1nc(-c2ccccc2)c(Oc2ccnc(Nc3cccc(C(=O)O)n3)c2)s1` [A-169, 6-((4-((2-(Dimethylamino)-4-phenylthiazol-5-yl)oxy)pyridin-2-yl)amino)picolinic acid], the half-inhibitory concentration (IC50) was < 100 nM at ALK5 kinase and > 100 nM in the assay on TGF-β signaling.

Regarding `Cc1nc(-c2ccccc2)c(Oc2ccnc(Nc3cccc(S(N)(=O)=O)c3)n2)s1` [A-238, 3-((4-((2-Methyl-4-phenylthiazol-5-yl)oxy)pyrimidin-2-yl)amino)benzenesulfonamide], the IC50 at ALK5 kinase and in the assay on TGF-β signaling was < 100 nM throughout.

As for `COc1nc(-c2ccccc2)c(Oc2ccnc(Nc3cccc(C(C)(C)O)c3)c2)s1` [A-141, 2-(3-((4-((2-Methoxy-4-phenylthiazol-5-yl)oxy)pyridin-2-yl)amino)phenyl)propan-2-ol], the IC50 on ALK5 kinase is < 100 nM; in the assay on TGF-β signaling, > 100 nM.

For the molecule `O=C(O)c1ccc(Nc2cc(Oc3sc(C4CCCC4)nc3-c3ccccc3)ccn2)cc1` [A-175, 4-((4-((2-Cyclopentyl-4-phenylthiazol-5-yl)oxy)pyridin-2-yl)amino)benzoic acid], the IC50 on ALK5 kinase was < 100 nM; with TGF-β signaling it was > 100 nM.

Consider `Cc1nc(-c2ccccc2)c(Oc2ccnc(Nc3ccnc(C(C)(C)O)c3)c2)s1` [A-59, 2-(4-((4-((2-Methyl-4-phenylthiazol-5-yl)oxy)pyridin-2-yl)amino)pyridin-2-yl)propan-2-ol], for which the IC50 on ALK5 kinase is < 100 nM; in the assay on TGF-β signaling it was > 100 nM.

Take `Cc1nc(-c2ccccc2)c(Oc2ccnc(Nc3cccc(S(=O)(=O)O)c3)c2)s1` [A-68, 3-((4-((2-Methyl-4-phenylthiazol-5-yl)oxy)pyridin-2-yl)amino)benzenesulfonic acid]: the 50% inhibitory concentration (IC50) at ALK5 kinase is < 100 nM; with TGF-β signaling, > 100 nM.

With `O=C(O)c1cccc(Nc2cc(Oc3sc(C4CC4)nc3-c3ccccc3)ccn2)c1` [A-135, 3-((4-((2-Cyclopropyl-4-phenylthiazol-5-yl)oxy)pyridin-2-yl)amino)benzoic acid], the IC50 at ALK5 kinase and with TGF-β signaling was < 100 nM in each case.

Consider `O=C(O)c1ccc(Nc2cc(Oc3sc(NC4CC4)nc3-c3ccccc3)ccn2)cc1` [A-49, 4-((4-((2-(Cyclopropylamino)-4-phenylthiazol-5-yl)oxy)pyridin-2-yl)amino)benzoic acid], for which the IC50 is < 100 nM on ALK5 kinase and > 100 nM with TGF-β signaling.

For the molecule `CNC(=O)c1ccc(Nc2cc(Oc3sc(N(C)C)nc3-c3ccccc3)ccn2)nc1` [A-166, 6-((4-((2-(Dimethylamino)-4-phenylthiazol-5-yl)oxy)pyridin-2-yl)amino)-N-methylnicotinamide], the IC50 at ALK5 kinase and in the assay on TGF-β signaling was < 100 nM throughout.

With `Cc1cccc(-c2nc(N(C)C)sc2Oc2ccnc(Nc3cccc(S(N)(=O)=O)c3)c2)n1` [A-283, 3-((4-((2-(Dimethylamino)-4-(6-methylpyridin-2-yl)thiazol-5-yl)oxy)pyridin-2-yl)amino)benzenesulfonamide], the IC50 on ALK5 kinase and with TGF-β signaling was < 100 nM throughout.

Take `CCc1nc(-c2ccccc2)c(Oc2ccnc(Nc3ccc(C(N)=O)cc3)c2)s1` [A-185, 4-((4-((2-Ethyl-4-phenylthiazol-5-yl)oxy)pyridin-2-yl)amino)benzamide]: the half-inhibitory concentration (IC50) at ALK5 kinase was < 100 nM; with TGF-β signaling, > 100 nM.

On to `CN(C)c1nc(-c2ccccc2)c(Oc2ccnc(Nc3ccc(C(=O)O)cn3)c2)s1` [A-165, 6-((4-((2-(Dimethylamino)-4-phenylthiazol-5-yl)oxy)pyridin-2-yl)amino)nicotinic acid], for which the IC50 at ALK5 kinase and with TGF-β signaling was < 100 nM throughout.

Regarding `O=C(O)c1cccc(Nc2cc(Oc3sc(Br)nc3-c3ccccc3)ccn2)c1` [A-171, 3-((4-((2-Bromo-4-phenylthiazol-5-yl)oxy)pyridin-2-yl)amino)benzoic acid], the figures for the IC50 on ALK5 kinase and in the assay on TGF-β signaling were < 100 nM and > 100 nM, respectively.

In the case of `CNc1nc(-c2ccccc2)c(Oc2ccnc(Nc3cccc(C(=O)O)c3)c2)s1` [A-57, 3-((4-((2-(Methylamino)-4-phenylthiazol-5-yl)oxy)pyridin-2-yl)amino)benzoic acid], the IC50 on ALK5 kinase was < 100 nM; with TGF-β signaling, > 100 nM.

With `CCc1nc(-c2cccc(C)n2)c(Oc2ccnc(Nc3cccc(C(=O)O)c3)c2)s1` [A-257, 3-((4-((2-Ethyl-4-(6-methylpyridin-2-yl)thiazol-5-yl)oxy)pyridin-2-yl)amino)benzoic acid], the IC50 at ALK5 kinase and in the assay with TGF-β signaling was < 100 nM in each case.

As for `CCc1nc(-c2cccc(C)n2)c(Oc2ccnc(Nc3ccnc(C(=O)NC)c3)c2)s1` [A-265, 4-((4-((2-Ethyl-4-(6-methylpyridin-2-yl)thiazol-5-yl)oxy)pyridin-2-yl)amino)-N-methylpicolinamide], the IC50 at ALK5 kinase and in the assay with TGF-β signaling was < 100 nM each time.

With `CN(C)c1nc(-c2ccccc2)c(Oc2ccnc(Nc3ccc(C(N)=O)cn3)c2)s1` [A-163, 6-((4-((2-(Dimethylamino)-4-phenylthiazol-5-yl)oxy)pyridin-2-yl)amino)nicotinamide], the IC50 on ALK5 kinase and in the assay on TGF-β signaling was < 100 nM throughout.

With `Cc1nc(-c2ccccc2)c(Oc2ccnc(Nc3cccc(S(C)(=O)=O)c3)c2)s1` [A-70, 4-((2-Methyl-4-phenylthiazol-5-yl)oxy)-N-(3-(methylsulfonyl)phenyl)pyridin-2-amine], the IC50 at ALK5 kinase and with TGF-β signaling was < 100 nM each time.

In the case of `Cc1cccc(-c2nc(C(C)C)sc2Oc2ccnc(Nc3cccc(S(N)(=O)=O)c3)c2)n1` [A-287, 3-((4-((2-Isopropyl-4-(6-methylpyridin-2-yl)thiazol-5-yl)oxy)pyridin-2-yl)amino)benzenesulfonamide], the half-maximal inhibitory concentration (IC50) on ALK5 kinase and with TGF-β signaling was < 100 nM each time.

For the molecule `CCc1nc(-c2cccc(C)n2)c(Oc2ccnc(Nc3cccc(S(N)(=O)=O)c3)c2)s1` [A-250, 3-((4-((2-Ethyl-4-(6-methylpyridin-2-yl)thiazol-5-yl)oxy)pyridin-2-yl)amino)benzenesulfonamide], the IC50 on ALK5 kinase and in the assay on TGF-β signaling was < 100 nM throughout.

On to `NC(=O)c1ccc(Nc2cc(Oc3sc(NC4CC4)nc3-c3ccccc3)ccn2)cc1` [A-47, 4-((4-((2-(Cyclopropylamino)-4-phenylthiazol-5-yl)oxy)pyridin-2-yl)amino)benzamide], for which the IC50 at ALK5 kinase and in the assay with TGF-β signaling was > 100 nM throughout.

In the case of `Nc1nc(-c2ccccc2)c(Oc2ccnc(Nc3cccc(S(N)(=O)=O)c3)c2)s1` [A-1, 3-((4-((2-Amino-4-phenylthiazol-5-yl)oxy)pyridin-2-yl)amino)benzenesulfonamide], the IC50 on ALK5 kinase and in the assay on TGF-β signaling was < 100 nM each time.

Turning to `CCc1nc(-c2cccc(C)n2)c(Oc2ccnc(Nc3cncc(C(=O)O)c3)c2)s1` [A-260, 5-((4-((2-Ethyl-4-(6-methylpyridin-2-yl)thiazol-5-yl)oxy)pyridin-2-yl)amino)nicotinic acid], the IC50 was < 100 nM at ALK5 kinase and > 100 nM with TGF-β signaling.

For `CCc1nc(-c2cccc(C)n2)c(Oc2ccnc(Nc3cncc(C(=O)NC)c3)c2)s1` [A-262, 5-((4-((2-Ethyl-4-(6-methylpyridin-2-yl)thiazol-5-yl)oxy)pyridin-2-yl)amino)-N-methylnicotinamide], the IC50 at ALK5 kinase and with TGF-β signaling was < 100 nM each time.

Turning to `CCc1nc(-c2ccccc2)c(Oc2ccnc(Nc3ccc(C(=O)O)cn3)c2)s1` [A-192, 6-((4-((2-Ethyl-4-phenylthiazol-5-yl)oxy)pyridin-2-yl)amino)nicotinic acid], the IC50 at ALK5 kinase and in the assay with TGF-β signaling was < 100 nM throughout.

Consider `Cc1cccc(-c2nc(C)sc2Oc2ccnc(Nc3cccc(CC#N)c3)c2)n1` [A-304], for which the IC50 on ALK5 kinase and with TGF-β signaling was < 100 nM in each case.

Regarding `NS(=O)(=O)c1cccc(Nc2cc(Oc3sc(C(F)(F)F)nc3-c3ccccc3)ccn2)c1` [A-145, 3-((4-((4-Phenyl-2-(trifluoromethyl)thiazol-5-yl)oxy)pyridin-2-yl)amino)benzenesulfonamide], the IC50 was < 100 nM on ALK5 kinase and > 100 nM with TGF-β signaling.

As to `Cc1cccc(-c2nc(C3CC3)sc2Oc2ccnc(Nc3cccc(C(N)=O)c3)c2)n1` [A-274, 3-((4-((2-Cyclopropyl-4-(6-methylpyridin-2-yl)thiazol-5-yl)oxy)pyridin-2-yl)amino)benzamide], the IC50 at ALK5 kinase and in the assay with TGF-β signaling was < 100 nM in each case.

On to `CCc1nc(-c2cccc(C)n2)c(Oc2ccnc(Nc3ccc(C(N)=O)cn3)c2)s1` [A-251, 6-((4-((2-Ethyl-4-(6-methylpyridin-2-yl)thiazol-5-yl)oxy)pyridin-2-yl)amino)nicotinamide], for which the half-maximal inhibitory concentration (IC50) on ALK5 kinase and in the assay on TGF-β signaling was < 100 nM each time.

In the case of `CC(C)(O)c1ccc(Nc2cc(Oc3sc(N)nc3-c3ccccc3)ccn2)cn1` [A-43, 2-(5-((4-((2-Amino-4-phenylthiazol-5-yl)oxy)pyridin-2-yl)amino)pyridin-2-yl)propan-2-ol], the half-maximal inhibitory concentration (IC50) on ALK5 kinase is < 100 nM; in the assay on TGF-β signaling, > 100 nM.

The record behind these values is patent US20250206730A1 (AUTOTELIC BIO INC., priority 2022, published 2025).
